Measured values reported in patent publication US20140004530A1, “METHOD FOR THE EVALUATION OF COMPOUND-TARGET INTERACTIONS ACROSS SPECIES” (CELLZOME GMBH, priority 2010, published 2014).

How the values were obtained:
[1] = biological target: T1, PIK3C3 (Homo sapiens, UniProt Q8NEB9); experiment: Competition binding to affinity matrix in mixed human/mouse cell lysate, quantitative MS of species-specific peptides; details: Experiment 1 (human/mouse 1); HL-60 + RAW 264.7 mixed lysate
T1 construct: Cell lysates from a human (HL60) and a mouse cell line (Raw 264.7) were prepared; endogenous in cells; host or cells: HL60
Description: (§1) Cell lysates from a human (HL60) and a mouse cell line (Raw 264.7) were prepared and subsequently mixed at a 1:1 ratio. Compound 1 was added at various concentrations (3 μM, 0.75 μM, 0.047 μM, 0.012 μM, plus DMSO solvent control) to aliquots of this mixed cell lysate and allowed to bind to the proteins in the lysate. Subsequently, the affinity matrix (beads with immobilized ligands) was added to each aliquot to capture proteins that were not interacting with compound 1. The generation of the affinity matrix (beads with immobilized ligands) was described in WO 2009/098021.
(§2) After the incubation time of 60 minutes the beads with captured proteins were separated from the lysate and bead bound proteins were eluted in SDS sample buffer and subsequently separated by SDS-Polyacrylamide gel electrophoresis. Electrophoresis was stopped after 20 minutes and the gel was stained with colloidal Coomassie. The stained area of each gel lane was cut out and subjected to in-gel proteolytic digestion with trypsin. Peptides originating from the different aliquots treated with compound 1 and the DMSO solvent control were labeled with isobaric tagging reagents (Tandem mass tag (TMT®) reagents, Thermofisher). The TMT® reagents are a set of multiplexed, amine-specific, stable isotope reagents that can label peptides in up to six different biological samples enabling simultaneous identification and quantitation of peptides. The combined samples were analyzed with a nano-flow liquid chromatography system coupled online to a tandem mass spectrometer (LC-MS/MS) experiment followed by reporter ion quantitation in the MS/MS spectra (Ross et al., 2004. Mol. Cell. Proteomics 3(12):1154-1169; Dayon et al., 2008. Anal. Chem. 80(8):2921-2931; Thompson et al., 2003. Anal. Chem. 75(8):1895-1904). Further experimental protocols can be found in WO2006/134056 and a previous publication (Bantscheff et al., 2007. Nature Biotechnology 25, 1035-1044).
(§3) Cells were homogenized in a Potter S homogenizer in lysis buffer: 50 mM Tris-HCl, 0.8% NP40, 5% glycerol, 150 mM NaCl, 1.5 mM MgCl2, 25 mM NaF, 1 mM sodium vanadate, 1 mM DTT, pH 7.5. One complete EDTA-free tablet (protease inhibitor cocktail, Roche Diagnostics, 1 873 580) per 25 ml buffer was added. The material was dounced 20 times using a mechanized POTTER S, transferred to 50 ml falcon tubes, incubated for 30 minutes rotating at 4° C. and spun down for 10 minutes at 20,000×g at 4° C. (10,000 rpm in Sorvall SLA600, precooled). The supernatant was transferred to an ultracentrifuge (UZ)-polycarbonate tube (Beckmann, 355654) and spun for 1 hour at 145.000×g at 4° C. (40.000 rpm in Ti50.2, pre-cooled). The supernatant was transferred again to a fresh 50 ml falcon tube, the protein concentration was determined by a Bradford assay (BioRad) and samples containing 5 mg of protein per aliquot were prepared. The samples were immediately used for experiments or frozen in liquid nitrogen and stored frozen at −80° C. Cell extracts from human HL60 cells and mouse raw 264.7 cells were mixed in a one to one (1:1) ratio.
(§4) Sepharose®-beads with the immobilized ligands (35 μl beads per aliquot) were equilibrated in lysis buffer and incubated with a cell lysate sample containing 5 mg of protein on an end-over-end shaker (Roto Shake Genie, Scientific Industries Inc.) for 60 minutes at 4° C. Beads were collected, transferred to Mobicol-columns (MoBiTech 10055) and washed with 10 ml lysis buffer containing 0.4% NP40 detergent, followed by 5 ml lysis buffer containing 0.2% detergent. To elute bound proteins, 60 μl 2× SDS sample buffer was added to the column. The column was incubated for 30 minutes at 4° C. and the eluate was transferred to a siliconized microfuge tube by centrifugation. Proteins were then alkylated with 108 mM iodoacetamid. Proteins were then separated by SDS-Polyacrylamide electrophoresis (SDS-PAGE). Suitable gel bands were cut out and subjected to in-gel proteolytic digestion with trypsin. […]

[2] = biological target: T2, PIK3Ca (Homo sapiens, UniProt P42336); experiment: as above; details: for IC50: HL-60 + RAW 264.7 mixed lysate
T2 construct: Cell lysates from a human (HL60) and a mouse cell line (Raw 264.7) were prepared; endogenous in cells; host or cells: HL60
Description: as §1, §2, §3, §4

[3] = biological target: T3, PIK3Cb (PI3Kbeta) (Homo sapiens, UniProt P42338); experiment: as above; details: for IC50: HL-60 + RAW 264.7 mixed lysate
T3 construct: Cell lysates from a human (HL60) and a mouse cell line (Raw 264.7) were prepared; endogenous in cells; host or cells: HL60
Description: as §1, §2, §3, §4

[4] = biological target: T4, PIK3Cb (PI3Kbeta) (Mus musculus, UniProt Q8BTI9); experiment: as above; details: HL-60 + RAW 264.7 mixed lysate
T4 construct: Cell lysates from a human (HL60) and a mouse cell line (Raw 264.7) were prepared; endogenous in cells; host or cells: RAW264.7
Description: as §1, §2, §3, §4

[5] = biological target: T5, PIK3Cd (PI3Kδ) (Homo sapiens, UniProt O00329); experiment: as above; details: for IC50: HL-60 + RAW 264.7 mixed lysate
T5 construct: Cell lysates from a human (HL60) and a mouse cell line (Raw 264.7) were prepared; endogenous in cells; host or cells: HL60
Description: as §1, §2, §3, §4

[6] = biological target: T6, PIK3Cd (PI3Kδ) (Mus musculus, UniProt O35904); experiment: as above; details: HL-60 + RAW 264.7 mixed lysate
T6 construct: Cell lysates from a human (HL60) and a mouse cell line (Raw 264.7) were prepared; endogenous in cells; host or cells: RAW264.7
Description: as §1, §2, §3, §4

[7] = biological target: T7, PIK3Cg (PI3Kγ) (Homo sapiens, UniProt P48736); experiment: as above; details: for IC50: HL-60 + RAW 264.7 mixed lysate
T7 construct: Cell lysates from a human (HL60) and a mouse cell line (Raw 264.7) were prepared; endogenous in cells; host or cells: HL60
Description: as §1, §2, §3, §4

[8] = biological target: T8, PIK3Cg (PI3Kγ) (Mus musculus, UniProt Q9JHG7); experiment: as above; details: for IC50: HL-60 + RAW 264.7 mixed lysate
T8 construct: Cell lysates from a human (HL60) and a mouse cell line (Raw 264.7) were prepared; endogenous in cells; host or cells: RAW264.7
Description: as §1, §2, §3, §4

[9] = biological target: T9, PIK3R4 (Homo sapiens, UniProt Q99570); experiment: as above; details: Experiment 1 (human/mouse 1); HL-60 + RAW 264.7 mixed lysate
T9 construct: Cell lysates from a human (HL60) and a mouse cell line (Raw 264.7) were prepared; endogenous in cells; host or cells: HL60
Description: as §1, §2, §3, §4

[10] = biological target: T10, PIK4Ca (Homo sapiens, UniProt P42356); experiment: as above; details: HL-60 + RAW 264.7 mixed lysate
T10 construct: Cell lysates from a human (HL60) and a mouse cell line (Raw 264.7) were prepared; endogenous in cells; host or cells: HL60
Description: as §1, §2, §3, §4

[11] = biological target: T11, PIK4Cb (Homo sapiens, UniProt Q9UBF8); experiment: as above; details: HL-60 + RAW 264.7 mixed lysate
T11 construct: Cell lysates from a human (HL60) and a mouse cell line (Raw 264.7) were prepared; endogenous in cells; host or cells: HL60
Description: as §1, §2, §3, §4

[12] = biological target: T12, PI3Kβ (Mus musculus, UniProt Q8BTI9); experiment: Competition binding profile with the affinity matrix in mixed extracts of human and rodent cell lines; details: mixed extracts of human (Jurkat) and mouse RAW264.7 cells
T12 construct: acquired in mixed extracts of human, mouse and rat cell lines; endogenous in cells
Description: (§5) Since compound efficacy and toxicity are evaluated in laboratory animals, it is important to determine its potency and selectivity in the relevant species. In order to minimize inter-assay variation, we used a mass spectrometric targeted data acquisition approach (Savitski et al., 2010. J. Am. Soc. Mass. Spectrom. 21(10):1668-1679) based on species specific proteotypic peptides (FIG. 7) and mixed cell lysates. Competition binding profiles of compound 2 with the affinity matrix were acquired in mixed extracts of human, mouse and rat cell lines.
(§6) Proteomics-based inhibitor profiling. Affinity profiling assays were performed as described previously ([…]). Derivatized sepharose® beads (35 μl beads per sample) were equilibrated in lysis buffer and incubated with 1 ml (5 mg protein) cell lysate, which had been preincubated with test compound or vehicle for 45 min, on an end-over-end shaker for 1 hour. Incubation was done at 4° C. for all compounds. Beads were transferred to disposable columns (MoBiTec), washed with lysis buffer containing 0.2% NP-40 and eluted with 50 μl 2× SDS sample buffer. Proteins were alkylated with […] iodoacetamide for 30 minutes, separated on 4-12% NuPAGE (Invitrogen), and stained with colloidal Coomassie.
(§7) Sample preparation for mass spectrometry. Gels were cut into slices across the entire separation range and subjected to in-gel digestion. Peptide extracts were labeled with tandem mass tags (TMT®) (Thermo-Fisher Scientific) in 40 mM triethylammoniumbicarbonate (TEAB), pH 8.53. After quenching of the reaction with glycin labeled extracts were combined. For compound profiling experiments extracts from vehicle treated samples were labeled with TMT® reagent 131, and combined with extracts from compound-treated samples labeled with TMT® reagents 126-130, optionally fractionated using reversed phase chromatography at pH 12, dried and acidified prior to LC-MS/MS analysis.
(§8) LC-MS/MS analysis. Samples were dried in vacuo and resuspended in 0.1% formic acid in water and aliquots of the sample were injected into a nano-LC system (Eksigent 1 D+) coupled to LTQ-Orbitrap mass spectrometers (Thermo-Finnigan). Peptides were separated on custom 50 cm×[…] (internal diameter) reversed-phase columns (Reprosil) at 40° C. Gradient elution was performed from 2% acetonitrile to 40% acetonitrile in 0.1% formic acid over 2-4 hours. […] Intact peptides were detected in the Orbitrap at 30.000 resolution. […]
(§9) Creation of peptide inclusion lists. […] Subsequently for each human and mouse (or rat) protein that was of interest to the study the selected peptides were ranked according to the quality of the quantification and ease of identification inherent to these peptides (Savitski et al., 2010, J. Am. Soc. Mass. Spectrom. 21(10):1668-1679). […]
(§10) Peptide and protein quantification. […]

[13] = biological target: T13, PI3Kβ (Rattus norvegicus, UniProt Q9Z1L0); experiment: as above; details: mixed extracts of human (Jurkat) and rat RBL-1 cells
T13 construct: acquired in mixed extracts of human, mouse and rat cell lines; endogenous in cells
Description: as §5, §6, §7, §8, §9, §10

[14] = biological target: T14, PI3Kγ (Mus musculus, UniProt Q9JHG7); experiment: as above; details: mixed extracts of human (Jurkat) and mouse RAW264.7 cells
T14 construct: acquired in mixed extracts of human, mouse and rat cell lines; endogenous in cells
Description: as §5, §6, §7, §8, §9, §10

[15] = system: PI3Kγ; experiment: as above; details: mixed extracts of human (Jurkat) and rat RBL-1 cells
Description: as §5, §6, §7, §8, §9, §10

[16] = potency ratio across species, average of two experiments

T2 sequence (P42336 whole entry): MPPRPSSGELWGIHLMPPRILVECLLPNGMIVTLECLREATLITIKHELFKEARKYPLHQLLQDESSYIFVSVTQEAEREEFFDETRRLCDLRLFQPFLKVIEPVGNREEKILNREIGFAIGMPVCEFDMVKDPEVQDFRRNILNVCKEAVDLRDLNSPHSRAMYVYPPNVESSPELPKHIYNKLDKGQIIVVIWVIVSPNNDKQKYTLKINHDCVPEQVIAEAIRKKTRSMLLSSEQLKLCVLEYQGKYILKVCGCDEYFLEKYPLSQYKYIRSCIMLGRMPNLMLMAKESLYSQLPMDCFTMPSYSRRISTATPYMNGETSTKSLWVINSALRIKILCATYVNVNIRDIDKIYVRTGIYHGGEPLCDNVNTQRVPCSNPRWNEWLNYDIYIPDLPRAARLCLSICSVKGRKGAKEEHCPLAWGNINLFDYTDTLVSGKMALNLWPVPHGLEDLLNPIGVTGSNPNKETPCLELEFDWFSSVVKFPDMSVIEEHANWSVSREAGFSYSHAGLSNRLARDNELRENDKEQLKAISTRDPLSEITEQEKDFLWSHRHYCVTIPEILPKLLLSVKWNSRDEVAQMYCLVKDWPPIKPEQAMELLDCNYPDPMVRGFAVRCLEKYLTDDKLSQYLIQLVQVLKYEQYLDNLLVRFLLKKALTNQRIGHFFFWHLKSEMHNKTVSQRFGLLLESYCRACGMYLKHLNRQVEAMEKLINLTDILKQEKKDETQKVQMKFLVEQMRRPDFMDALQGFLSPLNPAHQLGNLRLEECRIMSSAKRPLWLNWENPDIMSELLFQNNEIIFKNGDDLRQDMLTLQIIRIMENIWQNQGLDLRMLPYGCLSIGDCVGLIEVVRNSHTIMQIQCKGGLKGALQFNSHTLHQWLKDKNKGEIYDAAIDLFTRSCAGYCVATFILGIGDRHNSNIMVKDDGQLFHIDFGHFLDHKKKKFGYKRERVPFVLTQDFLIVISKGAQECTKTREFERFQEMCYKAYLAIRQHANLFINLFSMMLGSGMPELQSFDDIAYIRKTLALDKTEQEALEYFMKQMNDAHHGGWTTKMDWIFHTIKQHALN
T2 sequence (P27986 whole entry partner): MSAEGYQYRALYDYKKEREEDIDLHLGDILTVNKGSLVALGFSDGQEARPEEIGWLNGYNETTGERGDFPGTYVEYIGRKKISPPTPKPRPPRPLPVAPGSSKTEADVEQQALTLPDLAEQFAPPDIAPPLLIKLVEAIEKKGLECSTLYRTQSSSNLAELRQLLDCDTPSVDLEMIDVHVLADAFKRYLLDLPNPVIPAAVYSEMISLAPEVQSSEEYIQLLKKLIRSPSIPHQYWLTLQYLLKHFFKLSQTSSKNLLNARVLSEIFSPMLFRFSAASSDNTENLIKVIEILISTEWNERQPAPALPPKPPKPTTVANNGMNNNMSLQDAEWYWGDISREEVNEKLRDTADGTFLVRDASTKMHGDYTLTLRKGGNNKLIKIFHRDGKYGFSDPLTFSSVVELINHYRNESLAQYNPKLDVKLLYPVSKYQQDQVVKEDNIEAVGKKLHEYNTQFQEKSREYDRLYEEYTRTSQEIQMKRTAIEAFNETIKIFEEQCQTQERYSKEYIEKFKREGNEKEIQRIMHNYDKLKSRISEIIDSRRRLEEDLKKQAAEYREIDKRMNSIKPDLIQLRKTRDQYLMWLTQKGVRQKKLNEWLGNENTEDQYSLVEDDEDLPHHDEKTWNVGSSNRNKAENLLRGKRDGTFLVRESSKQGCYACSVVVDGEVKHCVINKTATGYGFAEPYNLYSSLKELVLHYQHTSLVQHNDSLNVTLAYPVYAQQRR
T8 sequence (Q9JHG7 whole entry): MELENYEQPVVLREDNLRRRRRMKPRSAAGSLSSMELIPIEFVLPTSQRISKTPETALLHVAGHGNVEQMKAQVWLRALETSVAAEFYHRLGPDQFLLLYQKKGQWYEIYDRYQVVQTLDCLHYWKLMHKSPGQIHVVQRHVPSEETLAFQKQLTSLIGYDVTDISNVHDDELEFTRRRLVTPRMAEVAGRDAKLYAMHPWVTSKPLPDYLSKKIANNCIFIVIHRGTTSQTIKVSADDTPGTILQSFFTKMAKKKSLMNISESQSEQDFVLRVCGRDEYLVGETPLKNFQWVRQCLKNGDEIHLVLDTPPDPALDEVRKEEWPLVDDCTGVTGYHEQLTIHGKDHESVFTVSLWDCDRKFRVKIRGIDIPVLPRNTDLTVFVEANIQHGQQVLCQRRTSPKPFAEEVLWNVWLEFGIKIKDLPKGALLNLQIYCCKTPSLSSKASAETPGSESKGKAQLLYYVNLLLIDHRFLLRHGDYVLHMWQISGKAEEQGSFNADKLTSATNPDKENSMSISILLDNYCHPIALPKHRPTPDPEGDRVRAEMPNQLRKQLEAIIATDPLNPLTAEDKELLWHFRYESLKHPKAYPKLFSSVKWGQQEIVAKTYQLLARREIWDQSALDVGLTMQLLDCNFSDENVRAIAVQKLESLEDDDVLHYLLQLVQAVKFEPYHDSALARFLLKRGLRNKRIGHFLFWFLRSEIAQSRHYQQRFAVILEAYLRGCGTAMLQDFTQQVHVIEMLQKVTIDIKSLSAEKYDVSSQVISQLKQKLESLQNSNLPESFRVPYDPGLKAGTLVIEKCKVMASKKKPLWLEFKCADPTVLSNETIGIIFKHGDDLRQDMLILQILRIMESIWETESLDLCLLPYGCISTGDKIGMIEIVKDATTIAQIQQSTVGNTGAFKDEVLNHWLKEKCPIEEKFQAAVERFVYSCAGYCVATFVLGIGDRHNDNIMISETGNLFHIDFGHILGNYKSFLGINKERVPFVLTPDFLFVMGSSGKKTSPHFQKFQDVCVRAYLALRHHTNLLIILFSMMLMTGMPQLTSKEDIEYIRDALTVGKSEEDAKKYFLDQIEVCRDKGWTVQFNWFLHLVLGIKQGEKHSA
T7 sequence (P48736 whole entry): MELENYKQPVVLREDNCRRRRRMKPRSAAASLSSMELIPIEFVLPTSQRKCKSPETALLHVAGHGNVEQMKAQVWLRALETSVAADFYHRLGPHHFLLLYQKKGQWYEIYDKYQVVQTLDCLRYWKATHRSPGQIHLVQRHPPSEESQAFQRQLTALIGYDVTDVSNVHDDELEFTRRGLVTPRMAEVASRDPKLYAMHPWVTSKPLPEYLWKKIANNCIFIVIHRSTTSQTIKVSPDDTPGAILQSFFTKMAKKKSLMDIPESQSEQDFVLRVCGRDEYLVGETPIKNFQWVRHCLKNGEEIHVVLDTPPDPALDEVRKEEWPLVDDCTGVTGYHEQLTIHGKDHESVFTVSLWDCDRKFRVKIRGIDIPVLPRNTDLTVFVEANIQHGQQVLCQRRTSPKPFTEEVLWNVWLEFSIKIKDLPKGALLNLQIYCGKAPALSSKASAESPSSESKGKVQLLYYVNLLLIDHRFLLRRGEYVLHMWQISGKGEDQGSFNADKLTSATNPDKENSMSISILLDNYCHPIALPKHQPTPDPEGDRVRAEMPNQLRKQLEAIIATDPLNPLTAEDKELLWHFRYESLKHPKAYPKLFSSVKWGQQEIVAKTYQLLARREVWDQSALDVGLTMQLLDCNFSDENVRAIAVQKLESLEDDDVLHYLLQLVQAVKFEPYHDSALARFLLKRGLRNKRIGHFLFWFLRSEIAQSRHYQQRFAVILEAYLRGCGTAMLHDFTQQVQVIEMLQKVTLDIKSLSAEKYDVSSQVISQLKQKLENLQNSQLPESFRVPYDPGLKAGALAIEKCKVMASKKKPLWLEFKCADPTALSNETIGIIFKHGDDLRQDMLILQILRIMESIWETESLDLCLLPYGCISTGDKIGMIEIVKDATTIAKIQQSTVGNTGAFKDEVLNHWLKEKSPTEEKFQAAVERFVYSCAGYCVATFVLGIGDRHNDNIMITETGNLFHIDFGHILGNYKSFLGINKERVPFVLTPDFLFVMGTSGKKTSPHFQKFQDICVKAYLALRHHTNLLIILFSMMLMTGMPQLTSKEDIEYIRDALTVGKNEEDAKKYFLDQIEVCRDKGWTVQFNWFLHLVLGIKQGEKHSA
T5 sequence (O00329 whole entry): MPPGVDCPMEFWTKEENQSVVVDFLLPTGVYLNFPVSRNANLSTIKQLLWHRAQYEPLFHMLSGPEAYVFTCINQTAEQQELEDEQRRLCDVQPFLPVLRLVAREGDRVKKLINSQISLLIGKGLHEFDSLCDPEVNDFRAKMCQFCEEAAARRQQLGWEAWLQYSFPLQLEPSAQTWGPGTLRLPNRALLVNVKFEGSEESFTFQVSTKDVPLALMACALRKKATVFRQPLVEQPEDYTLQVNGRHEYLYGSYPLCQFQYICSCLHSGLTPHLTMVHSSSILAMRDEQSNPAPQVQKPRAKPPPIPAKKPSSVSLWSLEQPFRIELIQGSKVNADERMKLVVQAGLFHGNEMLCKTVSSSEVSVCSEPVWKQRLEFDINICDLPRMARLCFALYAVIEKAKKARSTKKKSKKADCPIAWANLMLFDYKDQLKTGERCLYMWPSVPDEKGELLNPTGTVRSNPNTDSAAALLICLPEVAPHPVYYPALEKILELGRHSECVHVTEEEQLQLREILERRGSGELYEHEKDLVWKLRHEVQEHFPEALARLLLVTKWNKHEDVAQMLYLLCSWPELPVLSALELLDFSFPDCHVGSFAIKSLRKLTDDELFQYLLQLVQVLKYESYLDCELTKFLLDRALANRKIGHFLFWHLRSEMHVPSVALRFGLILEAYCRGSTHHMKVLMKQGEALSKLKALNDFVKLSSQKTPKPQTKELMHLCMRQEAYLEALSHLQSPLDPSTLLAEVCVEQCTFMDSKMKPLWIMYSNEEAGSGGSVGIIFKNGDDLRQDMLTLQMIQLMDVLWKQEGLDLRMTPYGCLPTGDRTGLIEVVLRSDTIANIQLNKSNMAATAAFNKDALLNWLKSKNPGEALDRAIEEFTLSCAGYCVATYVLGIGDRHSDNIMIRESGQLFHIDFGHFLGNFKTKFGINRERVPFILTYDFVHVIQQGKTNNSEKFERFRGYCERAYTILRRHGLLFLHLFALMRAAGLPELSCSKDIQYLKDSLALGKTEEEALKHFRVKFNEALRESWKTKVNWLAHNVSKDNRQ
T5 sequence (P27986 whole entry partner): as the sequence (P27986 whole entry partner) above

**Q.** What does the source list for `CC(C)(C)NS(=O)(=O)c1cncc(-c2ccc3nc(N)nn3c2)c1` [compound 1]?
**A.** IC50 [1]: ≥ 3000 nM; IC50 ([2]; Experiment 1 (human/mouse 1)): 2370 nM; IC50 ([2]; Experiment 2 (human/mouse 2)): 2600 nM; Average ratio human mouse, PIK3Ca [2, 16]: app. 1; IC50 ([3]; Experiment 1 (human/mouse 1)): 136 nM; IC50 ([3]; Experiment 2 (human/mouse 2)): 283 nM; Average ratio human mouse, PIK3Cb [3, 16]: 0.87; IC50 ([4]; Experiment 1 (human/mouse 1)): 251 nM; IC50 ([4]; Experiment 2 (human/mouse 2)): 162 nM; IC50 ([5]; Experiment 1 (human/mouse 1)): 1060 nM; IC50 ([5]; Experiment 2 (human/mouse 2)): 1520 nM; Average ratio human mouse, PIK3Cd [5, 16]: 1.0; IC50 ([6]; Experiment 1 (human/mouse 1)): 1310 nM; IC50 ([6]; Experiment 2 (human/mouse 2)): 1290 nM; IC50 ([7]; Experiment 1 (human/mouse 1)): 22 nM; IC50 ([7]; Experiment 2 (human/mouse 2)): 27 nM; ratio of the IC50 for PIK3CD and PIK3CG (selectivity window) ([7]; in humans): 48; Average ratio human mouse, PIK3Cg [7, 16]: 2.61; IC50 ([8]; Experiment 1 (human/mouse 1)): 57 nM; IC50 ([8]; Experiment 2 (human/mouse 2)): 71 nM; IC50 ratio for PIK3CD and PIK3CG (selectivity window) ([8]; in mouse): 23; IC50 [9]: ≥ 3000 nM; IC50 ([10]; Experiment 1 (human/mouse 1)): ≥ 3000 nM; IC50 ([10]; Experiment 2 (human/mouse 2)): ≥ 3000 nM; IC50 ([11]; Experiment 1 (human/mouse 1)): ≥ 3000 nM; IC50 ([11]; Experiment 2 (human/mouse 2)): ≥ 3000 nM

**Q.** Which “potency for PI3Kβ in mouse compared to human” value [12] does the source give for `CC(C)(C)NS(=O)(=O)c1cncc(-c2cc(F)c3nc(N)nn3c2)c1` [compound 2] here?
**A.** two- to four-fold lower

**Q.** What about the “potency for PI3Kβ in rat compared to human” value [13] of the same compound?
**A.** two- to four-fold lower

**Q.** What about the “potency for PI3Kγ in mouse compared to human” value [14] of the same compound?
**A.** two- to four-fold lower

**Q.** And the “potency for PI3Kγ in rat compared to human” value [15]?
**A.** two- to four-fold lower
